Data published in patent US9464113B2, “Anti-heparan sulfate peptides that block herpes simplex virus infection in vivo” (The Board of Trustees of the University of Illinois, priority 2010, dated 2016).

Test system: HSV-1 (KOS) gL86
Assay: HSV-1 entry into primary human corneal fibroblasts (CF)
Assay type: cell-based, herpes simplex virus type-1
Settings: CF, 6 h, ONPG (FIG. 4A)
Experimental: HSV-1 entry was assayed as described in Shukla et al., Cell 99:13-22 (1999). CHO-K1 cells were grown in 6-well plates to subconfluence and then transfected with 2.5 μg of expression plasmids for gD receptors nectin-1 (pBG38), HVEM (pBec10), 3-OST-3 isoform (pDS43), or pCDNA3.1 (empty vector) using LipofectAMINE (Gibco/BRL). At 16 h post-transfection, the cells were replated into 96-well dishes for pre-incubation with peptides at different concentrations for 60 min at room temperature. In parallel, natural target cells (HeLa, CF, and RPE) were also pre-treated with the peptides for the same duration. In all cases, unbound peptides were removed after washing 3× with PBS. Thereafter, cells were infected for 6 h with a recombinant virus, HSV-1 (KOS) gL86, at multiple plaque forming units (PFUs) and β-galactosidase assays were performed using either a soluble substrate o-nitrophenyl-β-D-galactopyranoside (ONPG at 3.0 mg/ml; ImmunoPure, Pierce) or X-gal (Sigma). For the soluble substrate, the enzymatic activity was measured at 410 nm using a micro-plate reader (Spectra Max 190, Molecular Devices, Sunnyvale, Calif.). For the X-gal assay, cells were fixed (2% formaldehyde and 0.2% glutaraldehyde) and permeabilized (2 mM MgCl2, 0.01% deoxycholate, and 0.02% nonidet NP-40 (Sigma)). 1 ml of β-galactosidase reagent (1.0 mg/ml X-gal in ferricyanide buffer) was added to each well and incubated at 37° C. for 90 min before the cells were examined using bright field microscopy under the 20× objectives of the inverted microscope (Zeiss Axiovert 100 M).
The ability of the G1 and G2 peptides to block HSV-1 entry into natural target cells (HeLa and primary cultures of human CF) was compared. A similar dosage response curve was generated when HeLa (FIG. 2A) or CF (FIG. 2B) were pre-treated with G1 or G2 peptides during HSV-1 entry. […] HeLa cells (FIG. 2A) and primary cultures of human corneal fibroblasts (CF) (FIG. 2B) were tested. Cells in 96-well plates were pre-treated for 60 min with indicated mM concentrations of G1, G2, or Cp peptides. Mock-treated cells (abbreviated as C) served as a control. Pretreated cells were infected with a β galactosidase-expressing recombinant virus HSV-1 (KOS) HSV-1 gL86 (25 pfu/cell) for 6 hr. Viral entry was quantitated as described above in reference to FIG. 1. Confirmation of HSV-1 entry blocking activity of G1, G2, and control (Cp) peptides on a per cell basis was obtained after cells were infected as described above followed by X-gal (1.0 mg/ml) staining (Right panels), which yields an insoluble blue product upon hydrolysis by β-galactosidase expressed from the input viral genomes. […] Microscopy was performed using a 20× objective of Zeiss Axiovert 100.
To better understand the inhibitory potential of G1 and G2 peptides, synthetic short variants (10-mer) were synthesized that lacked the terminal non-positively charged amino acids. In case of G1, N-terminus L and C-terminus H residues were removed. For G2, the N-terminus flanking residues (M and P) were removed. Without being bound by theory, it is believed that 12-mer peptides are too short to adopt substantial secondary or tertiary structures and that the primary structure of those peptides, which includes a defined sequence or groupings of positively charged residues, plays a critical role in mediating inhibition of HSV-1 entry. Synthetic 10-mer versions of G1 and G2 (shown above) were tested for blocking HSV-1(KOS)gL86 entry into cultured CF. After 6 h, the viral entry was measured by ONPG assay as described in FIG. 1.
Alanine (A) scanning mutagenesis was performed to identify specific amino acid residues responsible for each peptide's function, stability, and conformation. O'Nuallain et al., Biochemistry 46:13049-13058 (2007). Twelve synthetic peptides were made whereby each residue of G2 was sequentially replaced with an alanine residue and corresponding changes in the G2 peptide were evaluated for their ability to affect viral entry (FIG. 4B). […]

| Sequence | ability of 10-mer version to block HSV-1 entry compared with 12-mer |
| --- | --- |
| RRRRIRRRQK [10-mer version of G2] | very similar to the 12-mer in its ability to block HSV-1 entry |
| RSRTKIIRIR [10-mer version of G1] | almost completely lost its ability to block HSV-1 entry |
